Test results as given in patent US20060223868A1, “Heterocyclic amides exhibiting and inhibitory activity at the vanilloid receptor 1(vr1)” (AstraZeneca AB, priority 2003, published 2006).

Target: T1, hVR1 (Homo sapiens, UniProt Q8NER1)
T1 construct: expressed in transfected cells
Test: hVR1 FLIPR (Fluorometric Image Plate Reader) screening assay, IC50 determination
Format: cell-based
Settings: transfected CHO cells stably expressing hVR1
Procedure: 1. hVR1 FLIPR (Fluorometric Image Plate Reader) Screening Assay
Transfected CHO cells, stably expessing hVR1 (15,000 cells/well) are seeded in 50 ul media in a black clear bottom 384 plate (Greiner) and grown in a humidified incubator (37° C., 2% CO2), 24-30 hours prior to experiment.
Subsequently, the media is removed from the cell plate by inversion and 2 μM Fluo-4 is added using a multidrop (Labsystems). Following the 40 minutes dye incubation in the dark at 37° C. and 2% CO2, the extracellular dye present is washed away using an EMBLA (Scatron), leaving the cells in 40 ul of assay buffer (1×HBSS, 10 mM D-Glucose, 1 mM CaCl2, 10 mM HEPES, 10×7.5% NaHCO3 and 2.5 mM Probenecid).
FLIPR Assay—IC50 Determination Protocol
For IC50 determinations the fluorescence is read using FLIPR filter 1 (em […]). A cellular baseline recording is taken for 30 seconds, followed by a 20 μl addition of 10, titrated half-log concentrations of the test compound, yielding cellular concentration ranging from 3 μM to 0.1 nM. Data is collected every 2 seconds for a further 5 minutes prior to the addition of a VR1 agonist solution: either 50 nM solution of capsaicin or MES (2-[N-morpholino) ethanesulfonic acid) buffer (pH 5.2), by the FLIPR pipettor. The FLIPR continues to collect data for a further 4 minutes. Compounds having antagonistic properties against the hVR1 will inhibit the increase in intracellular calcium in response to the capsaicin addition. This consequently leading to a reduction in fluorescence signal and providing a reduced fluorescence reading, compared with no compound, buffer controls. Data is exported by the FLIPR program as a sum of fluorescence calculated under the curve upon the addition of capsaicin. Maximum inhibition, Hill slope and IC50 data for each compound are generated.

T1 sequence (Q8NER1 whole entry): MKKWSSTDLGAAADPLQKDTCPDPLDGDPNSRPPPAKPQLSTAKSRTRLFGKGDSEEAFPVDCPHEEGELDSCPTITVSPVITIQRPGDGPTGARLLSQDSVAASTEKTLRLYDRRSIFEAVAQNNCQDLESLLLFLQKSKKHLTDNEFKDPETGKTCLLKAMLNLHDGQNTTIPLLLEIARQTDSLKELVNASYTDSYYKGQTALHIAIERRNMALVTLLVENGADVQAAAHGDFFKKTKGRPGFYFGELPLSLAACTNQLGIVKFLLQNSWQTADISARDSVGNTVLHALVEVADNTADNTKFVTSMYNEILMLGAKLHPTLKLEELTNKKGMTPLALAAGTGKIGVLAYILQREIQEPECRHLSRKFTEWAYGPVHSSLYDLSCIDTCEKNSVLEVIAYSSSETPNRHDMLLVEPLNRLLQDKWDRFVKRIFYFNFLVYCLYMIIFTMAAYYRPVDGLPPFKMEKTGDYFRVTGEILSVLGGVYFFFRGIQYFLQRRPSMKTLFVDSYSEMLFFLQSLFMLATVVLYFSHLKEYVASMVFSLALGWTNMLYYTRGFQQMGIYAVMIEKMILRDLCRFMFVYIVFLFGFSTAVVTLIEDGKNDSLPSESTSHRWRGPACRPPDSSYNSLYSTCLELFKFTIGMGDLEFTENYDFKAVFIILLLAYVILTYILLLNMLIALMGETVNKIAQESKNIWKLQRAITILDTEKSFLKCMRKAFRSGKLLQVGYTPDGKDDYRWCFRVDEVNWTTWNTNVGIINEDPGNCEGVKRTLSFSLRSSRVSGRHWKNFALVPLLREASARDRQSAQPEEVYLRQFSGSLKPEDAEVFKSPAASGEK

O=C(Nc1ccc2sc(CO)nc2c1)c1ccc(Br)cc1 [Example 2, 4-Bromo-N-[2-(hydroxymethyl)-1,3-benzothiazol-5-yl]benzamide]
IC50 (agonist H+/MES buffer (pH 5.2)): 60 nM
IC50 (agonist capsaicin): 10 nM

CC(C)Oc1ccc(C(=O)Nc2ccc3sc(CO)nc3c2)cc1 [Example 19, N-[2-(Hydroxymethyl)-1,3-benzothiazol-5-yl]-4-isopropoxybenzamide]
IC50 (agonist H+/MES buffer (pH 5.2)): 45 nM
IC50 (agonist capsaicin): 50 nM

CC(O)c1nc2cc(NC(=O)c3ccc(C(C)(C)C)cc3)ccc2s1 (centres unmarked) [Example 71, 4-tert-Butyl-N-[2-(1-hydroxyethyl)-1,3-benzothiazol-5-yl]benzamide]
IC50 (agonist capsaicin): 200 nM
